The test system of assay [1] is animal models of concussion. As to the kind of experiment: animal models of concussion. In kind it is in vivo. From the text: (§1) ent-19-norprogesterone is a fully synthetic, non-naturally, occurring neurosteroid.
Assay [2] in a line: preclinical studies of neuroprotective effects. In kind it is in vivo. The note with it: compared to related neurosteroids.
Excerpt: as §1

The structures appear in SMILES notation.

Consider `CC(=O)[C@@H]1CCC2C3CCC4=CC(=O)CC[C@H]4C3CC[C@]21C` (single isomer, unassigned) [ent-19-norprogesterone, ent-19-norpregn-4-ene-3,20-dione], for which, in assay [1], the “behavioral pathology associated with brain injury symptoms such as memory impairment, anxiety, and motor/sensory performance” value was “reduces the behavioral pathology”. Also, the neuroprotective effects entry in assay [2] was “equivalent, if not superior, neuroprotective effects compared to related neurosteroids”.

These data come from patent publication US20250186751A1, “BREATH-POWERED NASAL DEVICES FOR TREATMENT OF TRAUMATIC BRAIN INJURY (TBI), INCLUDING CONCUSSION, AND METHODS AND METHODS” (Odyssey Health, Inc., priority 2021, published 2025).
